The subject of one data set is Lys382 acetylated p53. The data set is described as follows: intracellular acetylation of p53 in IMR-32 cells (western blot). The format is cell-based. The settings on record: 1 μM or 5 μM, 16 hours. As to the method: The effect of certain compounds on intracellular acetylation of target proteins was tested in high risk neuroblastoma cells, BE-2C and IMR-32 cells.
IMR32 cells were grown to confluence in phenol-red-free RPMI media supplemented with 10% es grade FBS and 2.5 mM Ala-Glu. Cells were treated with DMSO or 1 μM or 5 μM compound 13 in DMSO for 16 hours. Protein extracts were prepared in RIPA buffer in the presence of protease and phosphatase inhibitors. Proteins were separated on a 4-20% gel by PAGE and transferred to a nitrocellulose membrane.
Beta actin, total and Lys382 acetylated p53, and Lys40 acetylated alpha, and total tubulin were detected using antibodies (Cell Signaling #8557, #2524 #2525, #12152 and #2144 respectively) using manufacturer recommended conditions.
(A western blot detects proteins with antibodies after separation by electrophoresis.)

The test system of the next data set is RXR. In words: RXR-mediated transcription, RXRE luciferase reporter in MCF7 cells. The data set is classed as cell-based. An excerpt: (§1) The effect of various compounds of the invention on RAR-mediated transcription in MCF7 breast cancer cells was examined by measuring their effect on the transcription of a luciferase reporter gene under the control of a TK promoter placed downstream of a RAR response element. In addition, the effect of the compounds on the closely related RXR-mediated transcription was examined by measuring their effect on the transcription of a luciferase reporter gene under the control of a TK promoter placed downstream of a RXR response element.
(§2) Typically, 10,000 cells were plated in 96 wells plates in phenol red-free RPMI medium supplemented with 10% charcoal-stripped Fetal Bovine Serum. After 24 hours, cells were transfected with 0.1 μg of luciferase reporter plasmid and 0.01 μg of a reporter plasmid expressing renilla luciferase (RLuc) gene under the control of a SV40 promoter, using Fugene 6 transfection reagent (0.5 μl/well Promega Corporation). Cells were treated in triplicate with compounds or vehicle (DMSO) for 24 hours. Luciferase and renilla luciferase activities were measured using Dual-Glo reagent (Promega Corporation). Luciferase activity was normalized in each well for renilla activity.
(A reporter such as luciferase makes a cellular process visible.)

Another data set can be described thus: aqueous solubility. The format is physicochemical.
Data set [1] concerns IMR-32 neuroblastoma cells. In words: cytotoxicity, cell survival (CellTiterGlo) in IMR-32. The data set is classed as cell-based. The settings on record: relative to compounds 17 and 8. The method, then: The cytotoxicity of compounds was examined and directly compared to compound 17, by measuring cell survival of clonal tumor cell lines IMR-32, BE2C (neuroblastoma), as well as MDA-MB-231, BT20, HCC-38 (Basal) and MCF7 (luminal) breast cancer cells (ATCC). Cells were cultured in phenol red-free RPMI medium supplemented with 10% FBS and 1 mM Ala-Glu. Typically, 10,000-20,000 cells/well were plated in a 96 well plate (Costar 3197). Cells were exposed to compounds or vehicle (1% DMSO final). Cells were maintained in the presence of compound for four or five days. Media and compounds were renewed every 48 hours. Cell survival was measured using the luminescence CellTiterGlo kit (Promega Corporation) and expressed as relative light unit as fold over DMSO.

The next data set relates to C2Cl2 myoblasts. In words: myotube fusion and degeneration in differentiated C2Cl2 cells left in exhausted media. The format is cell-based. The settings on record: 200 nM pre-treatment. As to the method:
C2Cl2 myoblasts were seeded at 100,000 in 30 mm plate in growth medium (Phenol red-free RMPI containing 10% FBS, Sodium pyruvate and Ala-Glu), and “pre-treated” with DMSO or 200 nM of compounds 13 or 17. At confluence cells were shifted to differentiation media (high glucose DMEM, +0.2% HS+1× Insulin/Transferrin/Selenium (Life Tech 41400-045)+Glutamine, without Pyruvate). Fully differentiated C2Cl2-derived myotubes were left in culture without media renewal for 8 days followed by media renewal and microscopic examination.

For a further data set, the system named is RAR. In words: RAR-mediated transcription, RARE-tk luciferase reporter in MCF7 cells. The format is cell-based.
From the text: as §1, §2

The test system of the next data set is C2Cl2 cells. In words: Q-RT PCR of myofiber-degradation associated genes in long term C2Cl2 cultures. The data set is classed as cell-based. The following applies: day 10, normalized for RPLP0. The method, then: Quantitative RT-PCR was performed on RNA prepared from cell treated as in Example 9. At day 10 of the experiment, cells were rinsed in HBSS (without calcium or magnesium) and RNA was prepared using FastLane Cell cDNA Kit (Qiagen). Quantitative PCR was performed using Eppendorf and SYBR amplification mix (Sigma-Aldrich) using the gene specific primer combination given in Table 3. Data were normalized for ribosomal housekeeping gene RPLP0

The target of data set [2] is T1, purified recombinant human HDAC-8 (Homo sapiens, UniProt Q9BY41).
T1 construct: purchased Cayman Chem 10009465 (AMC assay (so in the source)); 19380 (HDAC-Glo assay)
T1 sequence (Q9BY41 1-377): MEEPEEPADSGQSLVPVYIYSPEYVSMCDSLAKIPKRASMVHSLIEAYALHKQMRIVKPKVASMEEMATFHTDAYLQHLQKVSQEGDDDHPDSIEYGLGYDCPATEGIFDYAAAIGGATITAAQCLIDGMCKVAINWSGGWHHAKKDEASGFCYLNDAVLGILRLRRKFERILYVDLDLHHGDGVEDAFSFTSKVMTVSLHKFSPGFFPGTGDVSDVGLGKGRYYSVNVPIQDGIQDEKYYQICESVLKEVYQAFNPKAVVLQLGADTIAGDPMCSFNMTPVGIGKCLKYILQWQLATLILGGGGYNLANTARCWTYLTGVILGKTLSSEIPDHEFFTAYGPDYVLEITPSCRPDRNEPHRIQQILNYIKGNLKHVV
In words: HDAC-8 enzymatic inhibition (Boc-Lys(Tfa)-AMC / HDAC-Glo I/II). The data set is classed as biochemical. The following applies: relative to compound 17. As to the method:
(§3) The effect of compounds on the enzymatic activity of purified recombinant human HDAC-1, -2, -3, -6, and -8 activity and of purified rat liver HDAC was examined by measuring the deacetylation of synthetic peptides in various preparations of HDACs. HDAC assays were performed using a two-step enzymatic reaction where enzyme activity is correlated to the release of […] (AMC). AMC fluorescence is measured in a fluorescent plate reading using λex380 nm and λen440 nm.
HDAC-8, HDAC-9, HDAC-10 and HDAC-11 were assayed using HDAC-Glo™ I/II Kit (Promega Corporation G6421) in a total volume of 110 μl following the manufacturer's instructions.
(§4) The reaction was allowed to proceed for 40 min at 37° C., after which developer solution (0.5% trypsin, 10 μM trichostatin A (TSA)) was added to obtain a final concentration of 0.1% trypsin, 2 μM TSA. After 30 minutes at room temperature, the amount of free fluorogenic AMC was measured as described above.

Data set [3] has as its target purified recombinant human HDAC-1 (Homo sapiens, UniProt Q13547). The data set is described as follows: HDAC-1 enzymatic inhibition (AMC fluorogenic peptide deacetylation). The format is biochemical. The settings on record: up to. As to the method:
as §3, §4

Each structure is given as a SMILES string.

purified recombinant human HDAC-1, sequence (Q13547 whole entry): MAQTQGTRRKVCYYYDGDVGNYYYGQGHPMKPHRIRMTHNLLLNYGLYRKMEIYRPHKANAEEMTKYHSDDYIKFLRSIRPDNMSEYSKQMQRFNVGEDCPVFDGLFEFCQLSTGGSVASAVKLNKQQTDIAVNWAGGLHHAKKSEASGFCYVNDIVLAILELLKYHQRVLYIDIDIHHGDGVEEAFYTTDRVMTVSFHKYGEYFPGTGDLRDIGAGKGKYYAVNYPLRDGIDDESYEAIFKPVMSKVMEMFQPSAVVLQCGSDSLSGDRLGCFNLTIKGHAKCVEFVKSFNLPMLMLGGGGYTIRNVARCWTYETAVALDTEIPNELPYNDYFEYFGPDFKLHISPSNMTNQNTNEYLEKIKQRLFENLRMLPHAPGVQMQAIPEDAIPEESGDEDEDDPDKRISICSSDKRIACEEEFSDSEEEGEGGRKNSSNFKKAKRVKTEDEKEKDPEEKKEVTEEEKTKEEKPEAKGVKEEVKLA

In the case of `CC1(C)CCC(C)(C)c2cc(-c3cc4cc(C(=O)NO)ccc4[nH]3)ccc21` [Compound 13], in the data set with Lys382 acetylated p53, the “lysine acetylated p53 level” value is reported as “pronounced accumulation of lysine acetylated p53”. Also, the “transcriptional activation of RXR / RXRE-promoter” value with RXR is “none”. For the same compound, the aqueous solubility result in “aqueous solubility” is “improved”. Besides, the “fold more potent than compounds 17 and 8 in killing IMR-32 cells” value in data set [1] is listed as “ten”. In the data set with C2Cl2 myoblasts, the “cellular fusion after 72 hours differentiation versus DMSO” value is recorded as “extensive cellular fusion” and the “myotube structural atrophy in exhausted media for over 8 days” value is listed as “very little structural alteration”. Also, in the data set with RAR, the “RARE-dependent luciferase expression” value is recorded as “activated”. In addition, the “times more potent than compound 17 in activating RARE-tk_luc reporter” value in the data set with RAR (relative to compound 17) is given as “five to ten”. In the data set with C2Cl2 cells, the “expression of Atrogin” value was “downregulates” and the expression of myogenin result is recorded as “downregulates”. Also, the “times/fold more potent than compound 17 in HDAC-8 inhibition” value in data set [2] is recorded as “at least 13”. The “maximal inhibition of HDAC-1 activity” value in data set [3] is listed as roughly 50%.

Values taken from patent US10752591B2, “18-20 member bi-polycyclic compounds” (Haro Pharmaceutical Inc., priority 2014, dated 2020).
